Legend:
[1] = tested on: PGPS Knee Arthritis; experiment: Reactivated Peptidoglycan-Polysaccharide Knee Arthritis; assay type: in vivo, Male Lewis rats; settings: for gait scores and deficiency, first reactivation: days 1-4
Text: Male Lewis rats were acclimated to the testing facility for 7 days. The rats were housed in 5 per cage in shoe-box polycarbonate cages with wire tops, wood chip bedding and suspended food and water bottles. On day −21, the male Lewis rats were randomized into treatment groups by body weight. The rats were anesthetized and injected with peptidoglycan-polysaccharide (PGPS) into the right knee to induce PGPS arthritis. Arthritis was reactivated on days 0 and 14 by an IV tail injection of PGPS. […] Gait analysis was performed by applying ink to the ventral surface of the foot and documenting weight bearing during movement across paper. […] Right knees were removed, trimmed of extraneous tissue, and collected into 10% neutral buffered formalin. After two days in the formalin buffer and three days in 10% formic acid decalcifier, the knees were cut into two approximately equal halves in the frontal plane and processed for paraffin embedding and stained with T.Blue. Histological examinations were subsequently performed for bone resorption, inflammation, pannus and cartilage damage. […] Gait scores were analyzed using a Kruskal-Wallis test (non-parametric ANOVA) with Dunn's multiple comparison post-test. Histopathology scores were analyzed using a Kruskal-Wallis test (non-parametric ANOVA) with Dunn's multiple comparison post-test.

[2] = tested on: Monosodium Lodoacetate Induced Osteoarthritis; experiment: Monosodium Iodoacetate Induced Osteoarthritis, weight bearing; assay type: in vivo, Male Wistar rats; settings: for comparison with MIA/LRS at day 35: day 35, p<0.05
Text: Male Wistar rats were acclimated to the testing facility for 5 days. The rats were individually housed in micro-isolator shoe-box polycarbonate cages with cob bedding and water bottles. Dry pelleted food of known composition and nutritional components was provided ad libitum Animals were randomized by treatment type using an online random number generator. Each treatment group was assigned a number, entered into the random number generator, recorded then translated back to the associated treatment. All injections were given in the left leg unless the treatment indicated “Contralateral” in which case the injection was given in the right leg. Both legs were shaved on all animals at the time of the treatment injections to blind the test administrator. The rats were weighed the day prior to injection with monosodium iodoacetate (MIA), the agent used to induce osteoarthritis in the animals. The day of injection, rats from groups 2-8 received a subcutaneous (SC) dose of buprenorphine at least one hour prior to induction. […] Naïve animals were then placed in recovery. All other animals received an injection of MIA. In animals receiving MIA, the hind leg was flexed and an injection of MIA (25 μL) was injected into the intra-articular space using a 27 gauge ½ inch needle. Standard postoperative care was performed (twice daily for 48 hours). On Day 8 the test article was administered as described above. On Days −1, 7, 14, 21, 28, and 35 post-induction, weight bearing was assessed. A weight bearing scale was utilized using a plexiglass chamber to assess the amount of weight distributed in each hind limb. The animals were acclimated to the chamber for at least 5 minutes prior to testing and the weight distribution was recorded 5 times. The animals were terminated at day 36. Both stifles were collected from each animal; the skin was removed from the joint and the patella was removed while leaving as much of the fat pad intact with the joint. The stifle was placed in the appropriate cassette with rolled gauze to secure the stifle in the cassette and then placed into 4% Paraformaldehyde. These samples were examined histologically.

[3] = intra-articular on day -7 (Triamcinolone 0.06 mg; test compound 1 mg)
[4] = Triamcinolone 0.06 mg intra-articular

| Compound | reduction of AUC for scores and deficiency, first reactivation ([1]; 1 mg intra-articular) | reduction of AUC for scores and deficiency, second reactivation ([1]; 1 mg intra-articular) | reduction of summed AUC for deficiency ([1]; 1 mg intra-articular) | histopathology, reductions in all parameters ([1]; day 18, bone resorption, inflammation, pannus, cartilage damage (Triamcinolone 0.06 mg; test compound 1 mg)) | knee caliper measurements [1, 3] | reduction in knee caliper AUC [1, 3] | gait scores and deficiency, first reactivation [1, 3] | gait scores and deficiency, second reactivation ([1]; intra-articular on day -7 (Triamcinolone 0.06 mg; test compound 1 mg), days 15-18) | weight bearing efficacy ([2]; 10 μg Contralateral) | weight bearing efficacy ([2]; 10 μg Ipsilateral, intra-articular on Day 8) | weight bearing efficacy ([2]; 30 μg Contralateral) | comparison with MIA/LRS at day 35 ([2]; 30 μg Ipsilateral) | weight bearing efficacy ([2]; 30 μg Ipsilateral, intra-articular on Day 8) | systemic pain relief (weight bearing) ([2]; 100 μg Contralateral, 1-4 weeks) | comparison with MIA/LRS at day 35 ([2]; 100 μg Ipsilateral) | weight bearing efficacy ([2]; 100 μg Ipsilateral, intra-articular on Day 8) | body weight results ([2]; 10-100 μg intra-articular) | histopathology of the knee joint ([2]; day 36) | reduction of gait scores and deficiency AUC, each reactivation calculated separately [1, 4] | reduction of gait scores and deficiency AUC, summed [1, 4] |
| --- | --- | --- | --- | --- | --- | --- | --- | --- | --- | --- | --- | --- | --- | --- | --- | --- | --- | --- | --- | --- |
| COc1ccc(COc2ccc(Cn3c(N)nc4cc(-c5cnn(C)c5)cnc43)cc2OC)cc1 [Ex. 3-15, 3-(3-Methoxy-4-((4-methoxybenzyl)oxy)benzyl)-6-(1-methyl-1H-pyrazol-4-yl)-3H-imidazo[4,5-b]pyridin-2-amine] | 92-93% | 85-86% | 84% | 49-94% | significantly reduced on day 14 | generally unaffected by treatment | significant reductions in gait scores and deficiency throughout the first reactivation | Scores were significantly reduced throughout the second reactivation, and reductions in deficiency were significant on days 15, 17, and 18 | efficacy at 3 and 4 weeks following administration | efficacy was observed at 2 through 4 weeks following administration | efficacy at only the 3 week timepoint | MIA/LRS was significantly worse | effective throughout the four weeks following administration | did not show systemic pain relief at any timepoint | MIA/LRS was significantly worse | effective throughout the four weeks following administration | No adverse observations | no adverse changes | – | – |
| C[C@]12C=CC(=O)C=C1CC[C@H]1[C@@H]3C[C@@H](O)[C@](O)(C(=O)CO)[C@@]3(C)C[C@H](O)[C@@]12F [Triamcinolone, reference compound] | – | – | – | – | significantly reduced on days 2, 4, 16, and 18 | 53-106% | significantly reduced gait scores and deficiency throughout the first reactivation (days 1-4) | – | – | – | – | – | – | – | – | – | – | – | 74-99% | 88-92% |

From patent US9611265B2, “Tropomyosin-related kinase (TRK) inhibitors” (Genzyme Corporation, priority 2013, dated 2017)
